Results taken from patent US20260242822A1, “METHODS AND KITS FOR THE IMPROVED FERMENTATIVE PRODUCTION OF A RECOMBINANT VIRUS” (priority 2022, published 2026).

How the values were obtained:
HEK293 cells [1] = test: rAAV yield in 10 L bioreactor fermentation of HEK293 cells, ddPCR; type: cell-based, human; settings: supernatant
Source text: (§1) To test the effect of IFN inhibitor on the rAAV yield in large-scale bioreactor fermentation of HEK293 cells, 10 L bioreactors have been used. The results are shown in FIG. 3A (determination by capsid particlerAAV8 ELISA) and FIG. 3B (determination by ddPCR).

HEK293 cells [2] = test: rAAV yield in 10 L bioreactor fermentation of HEK293 cells, rAAV8 capsid particle ELISA; type: cell-based, human; settings: supernatant, vs negative control without inhibitor
Source text: as §1

Adherent HEK293 cells [3] = test: rAAV yield in adherent HEK293 cells in T75 flasks, ddPCR; type: cell-based, human; settings: supernatant, vs control condition (100%)
Experimental: (§2) Adherent HEK293 cell line (Agilent Technologies CAT #240073, Lot #0006218516) was cultivated in T75 flasks in a total volume of 23 mL with DMEM media containing 2% FCS. The cultivation of the cells was performed in an incubator at +37° C. and 5% CO2. 1 mM Ruxolitnib stock solution was prepared by dissolving the solid white powder in DMSO according to the manufacturer's instructions before use and stored at −20° C. During the last passage before transfection Ruxolitinib was added to the cell culture at defined concentrations. Every condition was tested in duplicates. At transfection day a confluence range of 60 to 80% was achieved.
(§3) The statistical mean of the control condition was calculated as 100%.

Adherent HEK293 cells [4] = test: rAAV yield in adherent HEK293 cells in T75 flasks, capsid particle AAV8 ELISA; type: cell-based, human; settings: supernatant, vs control condition
Experimental: as §2, §3

suspension HEK293 (CL1) = test: Lentivirus production in suspension HEK293 (CL1) shake flasks, p24 ELISA; type: cell-based, human; settings: vs untreated control (100%)
Experimental: Transient transfection of HEK293 to produce Lentivirus was performed with pALDI-Lenti system (Aldevron). […]. The transfection mix consisted of the four-plasmid system, DMEM media and PEI as transfection reagent. The ratio between the used plasmids was 1:1:1:1 and the plasmid DNA PEI ration was 1:3.
The ELISA quantifies structural HIV1 p24 capsid protein amount in cell culture and supernatant samples. It is a quantitative sandwich ELISA method. For titering lentiviral expression HIV1 p24 ELISA Kit ab218268 was used. To discriminate between viral p24 produced by lentivirus and associated p24 produced by HEK293 cells Cell Biolabs Quick Titer™ Kit including LV-Origine/TR30021/Lot #134641F and the Cell Biolabs Reference Standard #310809 was used. The virus pulldown technology ensures detection of lentiviral associated p24 only.
The suspension HEK293 (CL1) experiments with a four-plasmid lentiviral transfection were performed in shake flasks with the same conditions as shown in Table 2. The statistical mean of the control condition was evaluated as 100%.

HEK293 cells (CL1) [5] = test: rAAV8 yield in suspension HEK293 (CL1) shaker flasks, vector genome ddPCR
HEK293 cells (CL1) [6] = test: rAAV8 yield in suspension HEK293 (CL1) shaker flasks, capsid particle AAV8 ELISA
Source text: The commercially available enzyme-linked immunosorbent assay (ELISA; Progen AAV8 titration ELISA kit, cat. No. PRAAV8) uses a monoclonal antibody (ADK8) specific for a conformational epitope on assembled AAV8 capsids. This plate-immobilized antibody captures rAAV-8 particles from the specimen. Captured particles are then detected by the binding of biotinylated anti-AAV8 ADK8 since epitope targeted is repeatedly expressed on the assembled AAV8 capsid. Streptavidin peroxidase and a peroxidase substrate is then used for measuring bound anti-AAV8 and thus the concentration of AAV8 capsid. The color reaction was measured photometrically at 450 nm. The kit contains an rAAV2/8 particle preparation as calibration standard with a labelled rAAV8 particle concentration.

Q: With `N#CC[C@H](C1CCCC1)n1cc(-c2ncnc3[nH]ccc23)cn1` [Ruxolitinib, (3R)-3-cyclopentyl-3-[4-(7H-pyrrolo[2,3-d]pyrimidin-4-yl)pyrazol-1-yl]propanenitrile] as the molecule, how does the “improvement of rAAV yield by ddPCR” value (HEK293 cells [1]) read?
A: Its value is “approximately 1.3 fold”.

Q: And the “improvement of rAAV8 capsid particles by ELISA” value (HEK293 cells [2])?
A: The value was “about 1.5 fold”.

Q: And the “vg yield increase (ddPCR)” value (Adherent HEK293 cells [3]; 1 μM inhibitor)?
A: The value was 48%.

Q: What about the “vg yield increase (ddPCR)” value (Adherent HEK293 cells [3]; 5 μM inhibitor) of the same molecule?
A: The value was 38.5%.

Q: And the “vg yield increase (ddPCR)” value (Adherent HEK293 cells [3]; 10 μM inhibitor)?
A: Its value is 31%.

Q: And the “capsid particle yield increase (ELISA)” value (Adherent HEK293 cells [4]; 1 μM inhibitor)?
A: The value was 49%.

Q: What about the “capsid particle yield increase (ELISA)” value (Adherent HEK293 cells [4]; 5 μM inhibitor) of the same molecule?
A: Its value is 66.5%.

Q: What about the “capsid particle titer increase (ELISA)” value (Adherent HEK293 cells [4]; 10 μM inhibitor) of the same molecule?
A: Its value is 62%.

Q: And the “lentiviral cp titer increase (p24 ELISA)” value (suspension HEK293 (CL1); 5 μM inhibitor)?
A: The value was 40%.

Q: What about the “lentiviral cp titer increase (p24 ELISA)” value (suspension HEK293 (CL1); 10 μM inhibitor) of the same molecule?
A: The value was 81.5%.

Q: What about the “rAAV yield in the cell suspension” value (HEK293 cells (CL1) [5]; 5 μM ruxolitinib, cell suspension) of the same molecule?
A: Its value is “about 2×10^13 vg/L cell culture”.

Q: And the “rAAV yield in the cell suspension” value (HEK293 cells (CL1) [5]; 10 μM ruxolitinib, cell suspension)?
A: The value was “about 2×10^13 vg/L cell culture”.

Q: And the “increase of the vector genome (vg) in the cell suspension” value (HEK293 cells (CL1) [5]; 10 μM ruxolitinib, cell suspension, vs negative control without inhibitor)?
A: Its value is “about 2 fold”.

Q: And the “increase of the vector genome (vg) in the supernatant” value (HEK293 cells (CL1) [5]; 10 μM ruxolitinib, supernatant, vs negative control without inhibitor)?
A: The value was “about 2.5 fold”.

Q: And the “effect on rAAV yield at higher concentrations” value (HEK293 cells (CL1) [6]; concentrations higher than 10 μM)?
A: The value was “reduction of the effect”.

Q: And the “increase of rAAV yield as determined in cell suspension” value (HEK293 cells (CL1) [6]; optimal concentration 5 μM, vs yield in absence of inhibitor)?
A: The value was “about 3 fold”.
